In test [1] the target is interaction between PD-1 and PD-L1 (Homo sapiens, UniProt Q9NZQ7). The test is described as follows: PD-1/PD-L1 protein-protein interaction assay (ALPHA). Format: binding. Particulars: 2 nM His-tagged human PD-L1, 0.6 nM PD-1-Fc, AlphaScreen.
Another test has as its target T1, PD-1/PD-L1 interaction (Homo sapiens, UniProt Q9NZQ7).
T1 construct: expressed in transfected cells
The test is described as follows: PD-1/PD-L1 blockage cell-based bioassay (Jurkat NFAT luciferase / CHO-PDL1 co-culture). The following applies: Jurkat NFAT cells co-cultured with CHO-PDL1 cells, 6 h, luminescence.

Structures are written as SMILES. pIC50: −log10 of the molar value. Where only a bound is given, the exact number is not on record here.

For orientation: pIC50 means the IC50 on a negative log10 scale, so that one unit is a factor of ten.

T1 sequence (Q9NZQ7 19-290): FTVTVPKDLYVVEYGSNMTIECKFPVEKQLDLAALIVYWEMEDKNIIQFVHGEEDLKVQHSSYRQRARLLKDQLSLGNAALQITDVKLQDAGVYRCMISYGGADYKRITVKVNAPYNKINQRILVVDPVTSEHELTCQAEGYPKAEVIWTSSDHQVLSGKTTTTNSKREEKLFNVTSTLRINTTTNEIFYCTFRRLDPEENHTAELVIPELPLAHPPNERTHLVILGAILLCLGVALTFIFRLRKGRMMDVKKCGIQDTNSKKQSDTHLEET
interaction between PD-1 and PD-L1, sequence (Q9NZQ7 19-238 limits assumed): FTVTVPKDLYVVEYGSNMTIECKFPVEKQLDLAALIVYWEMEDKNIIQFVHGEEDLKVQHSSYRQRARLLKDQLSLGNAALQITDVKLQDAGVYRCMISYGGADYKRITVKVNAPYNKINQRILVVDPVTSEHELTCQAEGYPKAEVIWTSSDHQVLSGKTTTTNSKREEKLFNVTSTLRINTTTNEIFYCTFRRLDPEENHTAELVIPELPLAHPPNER
Procedure for PD-1/PD-L1 interaction: PD-1/PD-L1 Blockage Cell-Based Bioassay
Jurkat T cells expressing human PD-1 and luciferase gene reporter driven by TCR-mediated NFAT response element (Jurkat NFAT) were co-cultured with CHO-kl cells expressing human PD-L1 and surface-bound TCR activator (CHO-PDL1). […] CHO-PDL1 cells (20,000 cells/well) were seeded overnight. Compounds were added on CHO-PDL1 and incubated for 2 h at 37° C. Jurkat NFAT cells (20,000 cells/well) were diluted in RPMI assay medium (RPMI1640 with 1% FBS) and added into each well. After co-incubation for 6 h at 37° C., luminescence was determined by adding Bio-Glo™ Luciferase reagent (Promega) and measured with a luminescence plate reader. EC50 values were calculated from the four-parameter concentration-response curves.

Take `COc1cc(-n2ncc3c(-c4cccc(-c5ccc(CN[C@H]6C[C@@H](O)C6)c(OC)n5)c4Cl)cccc32)cc(OC)c1CNC[C@@H](C)O` [Example 113, cis-3-(((6-(2-chloro-3-(1-(4-((((R)-2-hydroxypropyl)amino)methyl)-3,5-dimethoxyphenyl)-1H-indazol-4-yl)phenyl)-2-methoxypyridin-3-yl)methyl)amino)cyclobutan-1-ol]: the pIC50 in test [1] is more than 9.00; against PD-1/PD-L1 interaction, more than 6.70.
The corresponding values for `COc1cc(-n2ncc3c(-c4cccc(-c5ccc(CN6CC7(CNC(=O)C7)C6)c(OC)n5)c4Cl)cccc32)cc(OC)c1CNC[C@@H](C)O` [Example 112, (R)-2-((6-(2-chloro-3-(1-(4-(((2-hydroxypropyl)amino)methyl)-3,5-dimethoxyphenyl)-1H-indazol-4-yl)phenyl)-2-methoxypyridin-3-yl)methyl)-2,6-diazaspiro[3.4]octan-7-one] are more than 9.00 and more than 6.70.
On to `COc1cc(-n2ncc3c(-c4cccc(-c5ccc(CNC[C@@H]6CCC(=O)N6)c(OC)n5)c4Cl)cccc32)cc(OC)c1CN1CC[C@@H](C(=O)O)C1` [Example 117, (R)-1-(4-(4-(2-chloro-3-(6-methoxy-5-(((((S)-5-oxopyrrolidin-2-yl)methyl)amino)methyl)pyridin-2-yl)phenyl)-1H-indazol-1-yl)-2,6-dimethoxybenzyl)pyrrolidine-3-carboxylic acid], for which the negative logarithm of the IC50 (pIC50) in test [1] is more than 9.00; against PD-1/PD-L1 interaction, more than 6.70.
The corresponding values for `COc1cc(-n2ncc3c(-c4cccc(-c5ccc(CN[C@H]6C[C@@H](O)C6)c(OC)n5)c4Cl)cccc32)cc(OC)c1CN1CC(C)(O)C1` [Example 102, 1-(4-(4-(2-chloro-3-(5-(((cis-3-hydroxycyclobutyl)amino)methyl)-6-methoxypyridin-2-yl)phenyl)-1H-indazol-1-yl)-2,6-dimethoxybenzyl)-3-methylazetidin-3-ol] are 8.00 to 9.00 and more than 6.70.
The corresponding values for `CCOC(=O)C1(C)CN(Cc2c(OC)cc(-n3ncc4c(-c5cccc(-c6ccc(CNC[C@@H]7CCC(=O)N7)c(OC)n6)c5Cl)cccc43)cc2OC)C1` [Example 151, ethyl (S)-1-(4-(4-(2-chloro-3-(6-methoxy-5-((((5-oxopyrrolidin-2-yl)methyl)amino)methyl)pyridin-2-yl)phenyl)-1H-indazol-1-yl)-2,6-dimethoxybenzyl)-3-methylazetidine-3-carboxylate] are 8.00 to 9.00 and more than 6.70.
Regarding `COc1cc(-n2ccc3c(-c4cccc(-c5ccc(CN6CC7(C6)CN(C(C)=O)C7)c(OC)n5)c4Cl)cccc32)cc(OC)c1CNC[C@@H]1CCC(=O)N1` [Example 32], the results for the pIC50 (in test [1]; at PD-1/PD-L1 interaction) were 8.00 to 9.00 and less than 5.70, respectively.
The corresponding values for `COc1cc(-n2ncc3c(-c4cccc(-c5ccc(CN6CC7(CNC(=O)C7)C6)c(OC)n5)c4Cl)cccc32)cc(OC)c1CN1CC[C@@H](O)C1` [Example 133, (R)-2-((6-(2-chloro-3-(1-(4-((3-hydroxypyrrolidin-1-yl)methyl)-3,5-dimethoxyphenyl)-1H-indazol-4-yl)phenyl)-2-methoxypyridin-3-yl)methyl)-2,6-diazaspiro[3.4]octan-7-one] are 8.00 to 9.00 and more than 6.70.
The corresponding values for `COc1cc(-n2ncc3c(-c4cccc(-c5ccc(CNC[C@H]6C[C@@H](O)C6)c(OC)n5)c4Cl)cccc32)cc(OC)c1CN1CC(C)(O)C1` [Example 68, 1-(4-(4-(2-chloro-3-(5-((((cis-3-hydroxycyclobutyl)methyl)amino)methyl)-6-methoxypyridin-2-yl)phenyl)-1H-indazol-1-yl)-2,6-dimethoxybenzyl)-3-methylazetidin-3-ol] are more than 9.00 and more than 6.70.
The corresponding values for `COc1cc(-n2ncc3c(-c4cccc(-c5ccc(CN[C@H]6C[C@@H](O)C6)c(OC)n5)c4Cl)cccc32)cc(OC)c1CN[C@H]1C[C@@H](O)C1` [Example 101, cis-3-(((6-(2-chloro-3-(1-(4-(((cis-3-hydroxycyclobutyl)amino)methyl)-3,5-dimethoxyphenyl)-1H-indazol-4-yl)phenyl)-2-methoxypyridin-3-yl)methyl)amino)cylobutanol] are more than 9.00 and more than 6.70.
In the case of `COc1cc(-n2ncc3c(-c4cccc(-c5ccc(CN6CC(C)(O)C6)c(OC)n5)c4Cl)cccc32)cc(OC)c1CNC[C@@H]1CCC(=O)N1` [Example 54], the values for the negative-log IC50 (pIC50) (in test [1]; at PD-1/PD-L1 interaction) were 7.00 to 8.00 and less than 5.70, respectively.
The corresponding values for `COc1cc(-n2ncc3c(-c4cccc(-c5nc6cc(CN(C)C78CCC(C(=O)O)(CC7)CC8)cc(C#N)c6o5)c4C)cccc32)cc(OC)c1CN1CC(O)C1` [Example 159, 4-(((7-cyano-2-(3-(1-(4-((3-hydroxyazetidin-1-yl)methyl)-3,5-dimethoxyphenyl)-1H-indazol-4-yl)-2-methylphenyl)benzo[d]oxazol-5-yl)methyl)(methyl)amino)bicyclo[2.2.2]octane-1-carboxylic acid] are more than 9.00 and more than 6.70.
The corresponding values for `COc1cc(-n2ccc3c(-c4cccc(NC(=O)c5nc6c(s5)CN(C)CC6)c4C)cccc32)cc(OC)c1CNC[C@@H]1CCC(=O)N1` [Example 67, (S)—N-(3-(1-(3,5-dimethoxy-4-((((5-oxopyrrolidin-2-yl)methyl)amino)methyl)phenyl)-1H-indol-4-yl)-2-methylphenyl)-5-methyl-4,5,6,7-tetrahydrothiazolo[5,4-c]pyridine-2-carboxamide] are 8.00 to 9.00 and less than 5.70.
The corresponding values for `COc1cc(-n2ncc3c(-c4cccc(-c5ccc(CN[C@H]6C[C@@H](O)C6)c(OC)n5)c4Cl)cccc32)cc(OC)c1CN[C@H](CO)C(=O)O` [Example 126, (4-(4-(2-chloro-3-(5-(((cis-3-hydroxycyclobutyl)amino)methyl)-6-methoxypyridin-2-yl)phenyl)-1H-indazol-1-yl)-2,6-dimethoxybenzyl)-D-serine] are more than 9.00 and more than 6.70.
On to `CCOC(=O)[C@@H](NCc1c(OC)cc(-n2ncc3c(-c4cccc(-c5ccc(CN6CC7(CNC(=O)C7)C6)c(OC)n5)c4Cl)cccc32)cc1OC)[C@@H](C)O` [Example 145, Ethyl (4-(4-(2-chloro-3-(6-methoxy-5-((7-oxo-2,6-diazaspiro[3.4]octan-2-yl)methyl)pyridin-2-yl)phenyl)-1H-indazol-1-yl)-2,6-dimethoxybenzyl)-L-threoninate], for which the pIC50 in test [1] is 8.00 to 9.00; against PD-1/PD-L1 interaction, 5.70 to 6.70.
The corresponding values for `COc1cc(-n2ncc3c(-c4cccc(-c5ccc(CN[C@H]6C[C@@H](O)C6)c(OC)n5)c4Cl)cccc32)ncc1CN1CC(C)(O)C1` [Example 124, 1-((6-(4-(2-chloro-(5-(((cis-3-hydroxycyclobutyl)amino)methyl)-6-methoxypyridin-2-yl)phenyl)-1H-indazol-1-yl)-4-methoxypyridin-3-yl)methyl)-3-methylazetidin-3-ol] are more than 9.00 and 5.70 to 6.70.
The corresponding values for `COc1cc(-n2ncc3c(-c4cccc(Nc5nc(C(F)F)nc6cc(CN7CC[C@@H](O)C7)cnc56)c4C)cccc32)cc(OC)c1CN(C)C12CCC(C(=O)O)(CC1)CC2` [Example 166, (R)-4-((4-(4-(3-((2-(difluoromethyl)-7-((3-hydroxypyrrolidin-1-yl)methyl)pyrido[3,2-d]pyrimidin-4-yl)amino)-2-methylphenyl)-1H-indazol-1-yl)-2,6-dimethoxybenzyl)(methyl)amino)bicyclo[2.2.2]octane-1-carboxylic acid] are more than 9.00 and more than 6.70.
The corresponding values for `COc1cc(N2CCc3c(-c4cccc(-c5nc6c(s5)CNCC6)c4C)cccc32)cc(OC)c1CNC[C@@H]1CCC(=O)N1` [Example 85, (S)-5-(((2,6-dimethoxy-4-(4-(2-methyl-3-(4,5,6,7-tetrahydrothiazolo[5,4-c]pyridin-2-yl)phenyl)indolin-1-yl)benzyl)amino)methyl)pyrrolidin-2-one] are 7.00 to 8.00 and less than 5.70.
Take `COc1cc(-n2ccc3c(-c4cccc(-c5ccc(CNC[C@H]6C[C@@H](O)C6)c(OC)n5)c4Cl)cccc32)cc(OC)c1CNC[C@@H]1CCC(=O)N1` [Example 82, (S)-5-(((4-(4-(2-chloro-3-(5-((((cis-3-hydroxycyclobutyl)methyl)amino)methyl)-6-methoxypyridin-2-yl)phenyl)-1H-indol-1-yl)-2,6-dimethoxybenzyl)amino)methyl)pyrrolidin-2-one]: the pIC50 in test [1] was 8.00 to 9.00; on PD-1/PD-L1 interaction it was 5.70 to 6.70.
The corresponding values for `COc1cc(-n2ccc3c(-c4cccc5c4ccn5-c4cc(OC)c(CNC[C@@H]5CCC(=O)N5)c(OC)c4)cccc32)cc(OC)c1CNC[C@@H]1CCC(=O)N1` [Example 64, (5S,5′S)-5,5′-((((1H,1′H-[4,4′-biindole]-1,1′-diylbis(2,6-dimethoxy-4,1-phenylene))bis(methylene))bis(azanediyl))bis(methylene))bis(pyrrolidin-2-one)] are 8.00 to 9.00 and less than 5.70.
Consider `COc1cc(-n2ncc3c(-c4cccc(-c5ccc(CN6CC7(CCC(=O)N7)C6)c(OC)n5)c4Cl)cccc32)ncc1CNCCO` [Example 116, 2-((6-(2-chloro-3-(1-(5-(((2-hydroxyethyl)amino)methyl)-4-methoxypyridin-2-yl)-1H-indazol-4-yl)phenyl)-2-methoxypyridin-3-yl)methyl)-2,5-diazaspiro[3.4]octan-6-one], for which the pIC50 in test [1] was more than 9.00; on PD-1/PD-L1 interaction, more than 6.70.
Turning to `COc1cc(-n2ncc3c(-c4cccc(-c5ccc(CN6CC7(CNC(=O)C7)C6)c(OC)n5)c4Cl)cccc32)cc(OC)c1CN1CC(C)(O)C1` [Example 79, 2-((6-(2-chloro-3-(1-(4-((3-hydroxy-3-methylazetidin-1-yl)methyl)-3,5-dimethoxyphenyl)-1H-indazol-4-yl)phenyl)-2-methoxypyridin-3-yl)methyl)-2,6-diazaspiro[3.4]octan-7-one], the pIC50 in test [1] is more than 9.00; on PD-1/PD-L1 interaction it was more than 6.70.

The values are drawn from patent US20240336601A1 (Chulalongkorn University, priority 2020, published 2024).
